Laboratory results: PubChem BioAssay AID2060506 (Molecular Pharmacology Branch, DTP, NCI, 2025)

Tested on: 598228-144-R-J1-PDC complex spheroid viability
Test: Anticancer human tumor 598228-144-R-J1-PDC patient-derived serous endometrial adenocarcinoma cell line growth inhibition [GQUAD]
Conditions: for IC50: curve of first compound; for viability, T/C: stronger effect = lower value
How it was run: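 Tumor cells were grown as complex spheroids with HUVEC endothelial cells and mesenchymal stem cells as stroma. G-quadruplex stabilizers were combined with targeted agents over half-log dilutions from near the clinical Cmax, or from 10 microM.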

[1] = second compound 0.0316 µM, first compound 0.0316 µM
[2] = second compound 0.0316 µM, first compound 0.1 µM
[3] = second compound 0.0316 µM, first compound 0.316 µM
[4] = second compound 0.0316 µM, first compound 1 µM
[5] = second compound 0.0316 µM, first compound 3.16 µM
[6] = second compound 0.0316 µM, first compound 10 µM
[7] = second compound 0.1 µM, first compound 0.0316 µM
[8] = second compound 0.1 µM, first compound 0.1 µM
[9] = second compound 0.1 µM, first compound 0.316 µM
[10] = second compound 0.1 µM, first compound 1 µM
[11] = second compound 0.1 µM, first compound 3.16 µM
[12] = second compound 0.1 µM, first compound 10 µM
[13] = second compound 0.316 µM, first compound 0.0316 µM
[14] = second compound 0.316 µM, first compound 0.1 µM
[15] = second compound 0.316 µM, first compound 0.316 µM
[16] = second compound 0.316 µM, first compound 1 µM
[17] = second compound 0.316 µM, first compound 3.16 µM
[18] = second compound 0.316 µM, first compound 10 µM
[19] = second compound 1 µM, first compound 0.0316 µM
[20] = second compound 1 µM, first compound 0.1 µM
[21] = second compound 1 µM, first compound 0.316 µM
[22] = second compound 1 µM, first compound 1 µM
[23] = second compound 1 µM, first compound 3.16 µM
[24] = second compound 1 µM, first compound 10 µM
[25] = second compound 3.16 µM, first compound 0.0316 µM
[26] = second compound 3.16 µM, first compound 0.1 µM
[27] = second compound 3.16 µM, first compound 0.316 µM
[28] = second compound 3.16 µM, first compound 1 µM
[29] = second compound 3.16 µM, first compound 3.16 µM
[30] = second compound 3.16 µM, first compound 10 µM
[31] = second compound 10 µM, first compound 0.0316 µM
[32] = second compound 10 µM, first compound 0.1 µM
[33] = second compound 10 µM, first compound 0.316 µM
[34] = second compound 10 µM, first compound 1 µM
[35] = second compound 10 µM, first compound 3.16 µM
[36] = second compound 10 µM, first compound 10 µM
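Note: spheroids exposed to the agents for one week before reading.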
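Throughout, for viability, T/C: percent of vehicle DMSO control viability so 100% = untreated growth.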

SMILES: CC(C)n1c(=O)n(C)c2cnc3cc(F)c(-c4ccc(OCCCN5CCCCC5)nc4)cc3c21 + Cc1[nH]c2ccc(F)cc2c1-c1nc2c3cccnc3c3ncccc3c2[nH]1
- IC50 (second compound 0.0316 µM): > 10000 nM
- IC50 (second compound 0.1 µM): > 10000 nM
- IC50 (second compound 0.316 µM): > 10000 nM
- IC50 (second compound 1 µM): 5120 nM
- IC50 (second compound 3.16 µM): < 31.6 nM
- IC50 (second compound 10 µM): > 10000 nM
- viability, T/C [1]: 116%
- viability, T/C [2]: 100%
- viability, T/C [3]: 117%
- viability, T/C [4]: 121%
- viability, T/C [5]: 106%
- viability, T/C [6]: 65%
- viability, T/C [7]: 107%
- viability, T/C [8]: 108%
- viability, T/C [9]: 95.4%
- viability, T/C [10]: 94.4%
- viability, T/C [11]: 91.7%
- viability, T/C [12]: 77%
- viability, T/C [13]: 90.8%
- viability, T/C [14]: 97.2%
- viability, T/C [15]: 93.9%
- viability, T/C [16]: 87.4%
- viability, T/C [17]: 101%
- viability, T/C [18]: 62.2%
- viability, T/C [19]: 72.6%
- viability, T/C [20]: 60.6%
- viability, T/C [21]: 59.2%
- viability, T/C [22]: 60.6%
- viability, T/C [23]: 59.2%
- viability, T/C [24]: 39.5%
- viability, T/C [25]: 45.2%
- viability, T/C [26]: 47.4%
- viability, T/C [27]: 40.8%
- viability, T/C [28]: 39.3%
- viability, T/C [29]: 29.5%
- viability, T/C [30]: 27.3%
- viability, T/C [31]: 66%
- viability, T/C [32]: 57.9%
- viability, T/C [33]: 52.9%
- viability, T/C [34]: 54.1%
- viability, T/C [35]: 55.4%
- viability, T/C [36]: 46.5%

SMILES: C#Cc1c(F)ccc2cc(O)cc(-c3ncc4c(N5CC6CCC(C5)N6)nc(OCC56CCCN5CC(F)C6)nc4c3F)c12 (stereo unspecified) + Cc1cnc(CNC(=O)c2c(=O)c3ccc(N4CCCN(C)CC4)nc3n3c2sc2ccccc23)cn1
- IC50 (second compound 0.0316 µM): > 10000 nM
- IC50 (second compound 0.1 µM): > 10000 nM
- IC50 (second compound 0.316 µM): > 10000 nM
- IC50 (second compound 1 µM): 8910 nM
- IC50 (second compound 3.16 µM): 31.6 nM
- IC50 (second compound 10 µM): < 31.6 nM
- viability, T/C [1]: 99.8%
- viability, T/C [2]: 88.6%
- viability, T/C [3]: 85.6%
- viability, T/C [4]: 83.2%
- viability, T/C [5]: 101%
- viability, T/C [6]: 81.7%
- viability, T/C [7]: 64.3%
- viability, T/C [8]: 77.7%
- viability, T/C [9]: 71.6%
- viability, T/C [10]: 63.7%
- viability, T/C [11]: 69.7%
- viability, T/C [12]: 68.7%
- viability, T/C [13]: 75%
- viability, T/C [14]: 58.8%
- viability, T/C [15]: 62.7%
- viability, T/C [16]: 55.4%
- viability, T/C [17]: 69.9%
- viability, T/C [18]: 53.1%
- viability, T/C [19]: 57%
- viability, T/C [20]: 53.4%
- viability, T/C [21]: 54%
- viability, T/C [22]: 58.9%
- viability, T/C [23]: 52.4%
- viability, T/C [24]: 46.1%
- viability, T/C [25]: 46.5%
- viability, T/C [26]: 50.9%
- viability, T/C [27]: 46.8%
- viability, T/C [28]: 40.5%
- viability, T/C [29]: 52.2%
- viability, T/C [30]: 27.9%
- viability, T/C [31]: 25.5%
- viability, T/C [32]: 30.3%
- viability, T/C [33]: 20.4%
- viability, T/C [34]: 24.2%
- viability, T/C [35]: 7.19%
- viability, T/C [36]: 0.48%

SMILES: CC(C)(O)C1CCC(Nc2ccc3ncc(-c4cccc(C(F)(F)F)c4)n3n2)CC1 (stereo unspecified) + CN(C)c1ccc(Nc2c3ccc(NC(=O)CCN4CCCC4)cc3nc3cc(NC(=O)CCN4CCCC4)ccc23)cc1
- IC50 (second compound 0.0316 µM): 1860 nM
- IC50 (second compound 0.1 µM): 1910 nM
- IC50 (second compound 0.316 µM): 2100 nM
- IC50 (second compound 1 µM): 1890 nM
- IC50 (second compound 3.16 µM): 1970 nM
- IC50 (second compound 10 µM): 1810 nM
- viability, T/C [1]: 112%
- viability, T/C [2]: 95.7%
- viability, T/C [3]: 79.2%
- viability, T/C [4]: 78.5%
- viability, T/C [5]: 25.1%
- viability, T/C [6]: 27.3%
- viability, T/C [7]: 96.3%
- viability, T/C [8]: 99%
- viability, T/C [9]: 112%
- viability, T/C [10]: 81.4%
- viability, T/C [11]: 26.6%
- viability, T/C [12]: 24.1%
- viability, T/C [13]: 98.9%
- viability, T/C [14]: 87.8%
- viability, T/C [15]: 112%
- viability, T/C [16]: 85.3%
- viability, T/C [17]: 31%
- viability, T/C [18]: 24.1%
- viability, T/C [19]: 101%
- viability, T/C [20]: 87.9%
- viability, T/C [21]: 128%
- viability, T/C [22]: 79%
- viability, T/C [23]: 29.5%
- viability, T/C [24]: 23.4%
- viability, T/C [25]: 110%
- viability, T/C [26]: 104%
- viability, T/C [27]: 107%
- viability, T/C [28]: 89.1%
- viability, T/C [29]: 22.6%
- viability, T/C [30]: 21.8%
- viability, T/C [31]: 93.3%
- viability, T/C [32]: 75.3%
- viability, T/C [33]: 81.7%
- viability, T/C [34]: 76.6%
- viability, T/C [35]: 24.8%
- viability, T/C [36]: 16.6%
